Key:
[1] = tested on: Corpus cavernosum smooth muscle cells; assay: Western blot protein expression of NOS isoforms, PDE5, PKG and sGC in corpus cavernosum smooth muscle cells; format: cell-based, human; conditions: 12.5 μM; 1 and 2 days
Method: Corpus cavernosum smooth muscle cells were grown in 60 mm Petri dishes. […] Then the treated CCSMCs were lysed with RIPA buffer and subjected to 8% SDS-PAGE electrophosis. Expression of eNOS and other proteins were detected by Western blot. After exposing with super ECL luminescence substrate, the band was analyzed with a Optical density scanner. The resulted results were analyzed by normalizing to β-actin.

PAE-EGFR cells = assay: NOS enzyme activity in EGFR expressing PAE-EGFR cells, NOS kit; format: cell-based, porcine; conditions: for NOS enzyme activity: PAE-EGFR cells
Method: Porcine vascular endothelial cells (PAE) were provided by the Institute of Urology, Peking University. The determination of the effect of icariside II on NOS activity in the endothelial cell is conducted using NOS kit (Cayman Chemical company, Ann Arbor, Mich., USA). Vascular endothelial cells (PAE) were treated with different concentrations of icariside II (0, 10^−9, 10^−8, 10^−7, 10^−6, 10^−5 and 10^−4 M) (sildenafil as the control group). 180 μl lysate was added into each culture well. 20 μl supernatant was used for protein concentration assay with BCA protein kit. And, 100 μl supernatant was analyzed for NOS activity with NOS kit (Cayman Chemical company, Ann Arbor, Mich., USA). NOS activity (units/mg)=[(valueNos-measure−valueNOS-blank)÷(38.3×10^6)]×[(2.15+supernatant volume)÷(15×supernatant volume)]÷[protein concentration of each Petri dish]. 1) The EGFR gene was subcloned into pGFP plasmid to construct pGFP-EGFR expression vector. With Liposome transfection reagent (Qigen), pGFP-EGFR was transfected into PAE cells. After the selection with 1800 μg/ml of G418, a single cell clone was selected. Western blot confirms the stable expression of EGFR in the PAE-EGFR cells.

[2] = tested on: Human corpus cavernosum smooth muscle cells; assay: RT-PCR mRNA expression of NOS isoforms and PDE5a in corpus cavernosum smooth muscle cells; format: cell-based; conditions: 12.5 μM; 1 day and 2 days treatment
Method: Human corpus cavernosum smooth muscle cells were grown in 60 mm Petri dishes. […] Then the treated CCSMCs were lysed with Trizol and total RNA was extracted and reverse transcribed into cDNA. PCR amplification was carried out using eNOS, iNOS, nNOS and PDE5a specific primers and the specific PCR products represent the mRNA levels.

PAE cells = assay: eNOS protein expression by Western blot in PAE cells; format: cell-based, porcine; conditions: 12.5 μM, 24 hr; for eNOS protein expression (normalized to β-actin): PAE cells; for eNOS expression levels: unstable strains
Method: 2) 5×10^5 of the PAE cells and PAE-EGFR cells were seeded into 35 mm Petri dishes plate in quadruplicate. After 12 hours, PAE and PAE-EGFR cells was treated with 12.5 μM icariside II and sildenafil for 24 hr, respectively. Then the treated PAE and PAE-EGFR cells were lysed with RIPA buffer and subjected to 8% SDS-PAGE electrophoresis. eNOS protein expression was detect by Western blot. After development with super ECL luminescence substrate, the band was analyzed with a Optical density scanner. The results were analyzed by normalizing to β-actin. 3) 5×10^5 of the PAE cells and PAE-EGFR cells were seeded into 35 mm Petri dishes plate in quadruplicate. After 12 hours, PAE and PAE-EGFR cells was treated with 12.5 μM icariside II and sildenafil for 24 hr, respectively, in the presence or absence with 100 μg/ml of EGF. Then the treated PAE and PAE-EGFR cells were lysed with RIPA buffer and subjected to 8% SDS-PAGE electrophoresis. eNOS protein expression was detect by Western blot. After development with super ECL substrate, the band was analyzed with an Optical density scanner. The resulted results were analyzed by normalizing to β-actin.

[3] = tested on: Primary human corpus cavernosum smooth muscle cells (CCSMCs); assay: cGMP/cAMP biosynthesis in corpus cavernosum smooth muscle cells; format: cell-based; conditions: 4 hours; for effect on the cAMP concentration: P>0.05
Method: Primary human corpus cavernosum smooth muscle cells ([…]) were provided by the Andrology Center of Peking University. The […] of the third passage were cultured in six plates for two days. Then the cells were treated with icariside II or the sildenafil at the concentration of 0, 10^-9, 10^-8, 10^-7, 10^-6, 10^-5, M for 4 hours; or treated with icariside II or the sildenafil at the concentration of 0, 10^-9, 10^-8, 10^-7, 10^-6, 10^-5, 10^-4 M for 4 hours followed by a treatment with 10^-5 M of SNP for 30 min. The control group was cultured with DMEM only. Then to each well was added 0.4 mL 0.1 M HCl and incubated at room temperature for 20 minutes. Then the lysed cells are harvested. The cell suspension was collected in centrifuge tubes and centrifuged at 1000 g for 10 minutes; 60 μl cell suspension was taken for protein concentration assay with the BCA protein kit, and 100 μl cell suspension was taken for cGMP or cAMP concentration test. The concentration of cGMP [pmol/(mg prot·min)]=[cGMP or cAMP concentration×supernatant volume]÷reaction time×protein concentration in each well×supernatant volume].

[4] = tested on: MPG nerve axon of old rats; assay: MPG (major pelvic ganglion) culture, nerve axon growth; format: cell-based, rat; conditions: for MPG nerve axon growth compared to control group: old rats; for MPG nerve axon growth (length of the longest nerve axon): old rats (24-month-old), n = 9
Method: The 24-month-old Sprague-Dawley male rats were used. All experimental animals used in this study were under a protocol approved by the Institutional Animal Care and Use Committee. Rats were anesthetized by intraperitoneal injection of pentobarbital sodium (200 mg/kg). After midline incision on abdomen, major pelvic ganglion was carefully dissected from prostate. MPG culture and treatment: the Bilaterally MPG was rapidly removed and after washing with PBS, DCR were stripped from MPG and cut into 3 pieces with the same size. Reduced Growth Factor Matrigel (RGFM) was diluted three times with serum free RPMI-1640 medium and placed in the 35 mm Petri dish on ice. The diluted RGFM were poured onto the cold sterilized glass cover slip and incubated at 37° C. for 1 hour in 35 mm Petri dishes to make the RGFM steady. Then each MPG was embedded in 40 μl of pre-cooled RGFM and maintained at 37° C. for 5 minute and cultured in RPMI 1640 with 1% penicillin-streptomycin that is maintained in humidified cell culture incubator containing 5% CO2 at 37° C. The cultured MPG tissues were randomly divided into 3 groups: control group, icariside II and sildenafil groups. […] Three MGP from the younger groups and the three MPG from the older groups were cultured with designation dose for 48-72 hours. Measurement of nerve axon growth: at the 48 and 72 hours, Nikon DXM1200 digital camera connected to Zeiss Axiovert microscope and ACT-1 software (20 times magnification) was used to observe the nerve axon growth on the MPG. The digital image was analyzed by […] 4000 and the length of the longest nerve axon was calculated.

Compound	PDE5a protein expression [1]	PKG protein expression [1]	eNOS protein expression [1]	iNOS protein expression [1]	nNOS protein expression [1]	sGC protein expression [1]	NOS enzyme activity (PAE-EGFR cells; 10^−5 M) [u/mg]	NOS enzyme activity (PAE-EGFR cells; 10^−6 M) [u/mg]	NOS enzyme activity (PAE-EGFR cells; 10^−7 M) [u/mg]	NOS enzyme activity (PAE-EGFR cells; 10^−8 M) [u/mg]	NOS enzyme activity (PAE-EGFR cells; 10^−9 M) [u/mg]	PDE5a mRNA level [2]	eNOS mRNA level [2]	iNOS mRNA level [2]	nNOS mRNA level [2]	eNOS protein expression (normalized to β-actin) (PAE cells)	eNOS expression levels (PAE cells)	effect on the cAMP concentration [3]	MPG nerve axon growth compared to control group ([4]; 10 nM, 100 nM, 1000 nM)	MPG nerve axon growth (length of the longest nerve axon) ([4]; 10 nM)	further results
icariside II	significantly decreased	significantly increased	increased at 2 days	slightly increased	significantly increased	significantly increased	22.74 ± 2.27	23.91 ± 2.36	22.79 ± 2.45	15.37 ± 1.51	11.72 ± 1.21	significantly decreased	not changed	slightly increased	significantly increased	1.08 ± 0.09	2.08	no significant effect	significantly increased	295 ± 5.3 μm*	NOS activity in PAE-EGFR cells higher than the activity in PAE cells (PAE-EGFR cells; 10^−8 M): 4.66 u/mg; NOS enzyme activity (PAE-EGFR cells; 10^−8 M, listed as icariside II): 15.37±1.49 u/mg; EC50 ([3]; in presence of 10^−5 M SNP, read-out: EC50 of cGMP concentration increase): 1020 nM; MPG nerve axon growth (length of the longest nerve axon) ([4]; 100 nM): 325 ± 4.1 μm*; MPG nerve axon growth (length of the longest nerve axon) ([4]; 1000 nM): 406 ± 4.3 μm*
CCCc1nn(C)c2c(=O)[nH]c(-c3cc(S(=O)(=O)N4CCN(C)CC4)ccc3OCC)nc12 [Sildenafil, sildenafil, reference compound]	decrease	increase	no effect	no effect	no effect	no effect	8.99 ± 0.87	8.4 ± 0.84	8.53 ± 0.84	8.37 ± 0.82	8.48 ± 0.85	significantly reduced	not significantly changed	slightly increased after 2 days treatment	not significantly changed	1.12 ± 0.09	1.38	no significant effect	did not significantly affect	215 ± 2.6 μm	MPG nerve axon growth (length of the longest nerve axon) ([4]; 100 nM): 238 ± 3.5 μm; MPG nerve axon growth (length of the longest nerve axon) ([4]; 1000 nM): 219 ± 3.2 μm

— US8530433B2, “Use of icariside II in manufacture of products for preventing or treating male or female sexual dysfunction” (Bjo-Biomed Ltd, priority 2008, dated 2013)
